For experiment [1], the target named is T1, CD73 on U138 human neuroglioma cells (Homo sapiens, UniProt P21589).
T1 construct: U138 cells were obtained from ATCC and cultured in DMEM with 10% FBS; host or cells: U138 human neuroglioma cells
T1 sequence (P21589 27-549): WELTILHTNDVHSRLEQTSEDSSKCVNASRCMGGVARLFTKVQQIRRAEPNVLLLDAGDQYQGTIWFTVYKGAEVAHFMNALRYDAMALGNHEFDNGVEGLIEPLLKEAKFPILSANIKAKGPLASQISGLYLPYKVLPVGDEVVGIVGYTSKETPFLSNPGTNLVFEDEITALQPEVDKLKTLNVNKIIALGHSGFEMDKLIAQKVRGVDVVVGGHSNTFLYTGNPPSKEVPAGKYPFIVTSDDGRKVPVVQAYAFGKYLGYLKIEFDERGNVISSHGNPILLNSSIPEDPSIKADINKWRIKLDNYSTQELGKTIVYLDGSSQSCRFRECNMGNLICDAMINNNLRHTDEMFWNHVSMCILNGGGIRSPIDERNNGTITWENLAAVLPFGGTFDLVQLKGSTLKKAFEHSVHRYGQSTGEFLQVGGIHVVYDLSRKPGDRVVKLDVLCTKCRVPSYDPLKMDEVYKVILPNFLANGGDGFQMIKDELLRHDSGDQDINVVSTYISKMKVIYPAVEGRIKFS
Description: CD73 Cell-Based Assay. Conditions: U138 cells, AMP substrate, 2 hours at 37° C., inorganic phosphate by malachite green. The method, then:
U138 human neuroglioma cells were used in these experiments. U138 cells were obtained from ATCC and cultured in DMEM with 10% FBS. 2500 cells were seeded into 96-well plate with 100 μL of media the day before the experiment. Cells were washed twice with 200 μL of assay buffer (20 mM HEPES, pH 7.4; 137 mM NaCl; 5.4 mM KCl; 1.3 mM CaCl2); 4.2 mM NaHCO3; 1 mg/mL glucose) to remove residual inorganic phosphate. After washing, 100 μL of buffer was added to each well, then 100 μL of a mixture of AMP substrate (200 μM) and diluted compound was added to each well. The cells were incubated at 37° C. (with 5% CO2) for 2 hours. 50 μL of supernatant was transferred to a 96-well assay plate and the concentration of inorganic phosphate was determined using malachite green reagent (R&D System; Cat: DY996).

A further experiment addresses T2, Human CD73 (Homo sapiens, UniProt P21589).
T2 construct: purchased R&D Systems; host or cells: CHO cells
T2 sequence (P21589 27-549): T1 sequence (P21589 27-549)
Description: CD73 Enzyme Assay. The following applies: 0.25 nM hCD73, 25 μM AMP, kinetic read at 360 nm; read-out: CD73 Enzyme Assay IC50. Type of experiment: biochemical.

Molecules are shown by their SMILES.

What is called IC50 is the concentration needed to halve the response being measured. On to `CN(C)c1nc(C#N)nc2c1ccn2[C@@H]1O[C@H](COCP(=O)(O)O)[C@@H](O)[C@H]1O` [Compound 107, [(2R,3S,4R,5R)-5-[2-cyano-4-(dimethyl-amino)pyrrolo[2,3-d]-pyrimidin-7-yl]-3,4-dihydroxy-tetrahydro-furan-2-yl]methoxy-methylphosphonic acid], for which the IC50 (in experiment [1]; on Human CD73) was 10 to 100 nM throughout.

Take `C[C@H](Nc1nc(C#N)nc2c1ccn2[C@@H]1O[C@H](COCP(=O)(O)O)[C@@H](O)[C@H]1O)c1ccc(C(F)(F)F)cc1` [Compound 147, [(2R,3S,4R,5R)-5-[2-cyano-4-[[(1S)-1-[4-(trifluoromethyl)-phenyl]ethyl]amino]-pyrrolo[2,3-d]-pyrimidin-7-yl]-3,4-dihydroxy-tetrahydro-furan-2-yl]methoxy-methylphosphonic acid]: the IC50 in experiment [1] was < 10 nM; on Human CD73 it was 10 to 100 nM.

Turning to `CC(C)[C@@H](Nc1nc(Cl)nc2c1ccn2[C@@H]1O[C@H](COCP(=O)(O)O)[C@@H](O)[C@H]1O)c1ccccc1` [Compound 78], the IC50 is < 10 nM in experiment [1] and 10 to 100 nM on Human CD73.

In the case of `O=P(O)(O)COC[C@H]1O[C@@H](n2ccc3c(NC4CCC(F)(F)CC4)nc(Cl)nc32)[C@H](O)[C@@H]1O` [Compound 121, [(2R,3S,4R,5R)-5-[2-chloro-4-[(4,4-difluorocyclohexyl)-amino]pyrrolo[2,3-d]-pyrimidin-7-yl]-3,4-dihydroxy-tetrahydro-furan-2-yl]methoxy-methylphosphonic acid], the figures for the IC50 (in experiment [1]; on Human CD73) were < 10 nM and 10 to 100 nM, respectively.

As to `O=P(O)(O)COC[C@H]1O[C@@H](n2ccc3c(N4CCC[C@@H]4CO)nc(Cl)nc32)[C@H](O)[C@@H]1O` [Compound 283, [(2R,3S,4R,5R)-5-[2-chloro-4-[(2R)-2-(hydroxymethyl)-pyrrolidin-1-yl]-pyrrolo[2,3-d]-pyrimidin-7-yl]-3,4-dihydroxy-tetrahydro-furan-2-yl]methoxy-methylphosphonic acid], the IC50 in experiment [1] is 100 to 1000 nM; on Human CD73, 10 to 100 nM.

Turning to `C[C@@H](Nc1nc(Cl)nc2c1ccn2[C@@H]1O[C@H](COCP(=O)(O)O)[C@@H](O)[C@H]1O)c1cccc(F)c1` [Compound 82, [(2R,3S,4R,5R)-5-[2-chloro-4-[[(1R)-1-(3-fluorophenyl)ethyl]-amino]pyrrolo[2,3-d]-pyrimidin-7-yl]-3,4-dihydroxy-tetrahydro-furan-2-yl]methoxy-methylphosphonic acid], the IC50 is < 10 nM in experiment [1] and 10 to 100 nM at Human CD73.

As to `Cc1ccc([C@@H](C)Nc2nc(C#N)nc3c2ccn3[C@@H]2O[C@H](COCP(=O)(O)O)[C@@H](O)[C@H]2O)cc1` [Compound 137, [(2R,3S,4R,5R)-5-[2-cyano-4-[[(1R)-1-(p-tolyl)ethyl]amino]-pyrrolo[2,3-d]-pyrimidin-7-yl]-3,4-dihydroxy-tetrahydro-furan-2-yl]methoxy-methylphosphonic acid], the IC50 in experiment [1] was < 10 nM; on Human CD73 it was 10 to 100 nM.

With `CC(C)Nc1ncnc2c1ncn2[C@@H]1O[C@H](COCP(=O)(O)O)[C@@H](O)[C@H]1O` [Compound 12, [(2R,3S,4R,5R)-3,4-dihydroxy-5-[6-(iso-propylamino)purin-9-yl]tetrahydrofuran-2-yl]methoxymethyl-phosphonic acid], the IC50 in experiment [1] is > 1000 nM; at Human CD73, 100 to 1000 nM.

Take `C[C@H](Nc1ncnc2c1ncn2[C@@H]1O[C@H](COCP(=O)(O)O)[C@@H](O)[C@H]1O)c1ccc(F)cc1` [Compound 49, [(2R,3S,4R,5R)-5-[6-[[(1S)-1-(4-fluoro-phenyl)ethyl]amino]-purin-9-yl]-3,4-dihydroxy-tetrahydro-furan-2-yl]methoxy-methylphosphonic acid]: the half-maximal inhibitory concentration (IC50) (in experiment [1]; on Human CD73) was 10 to 100 nM each time.

As to `CC(C)[C@H](Nc1nc(Cl)nc2c1ccn2[C@@H]1O[C@H](COCP(=O)(O)O)[C@@H](O)[C@H]1O)c1ccccc1` [Compound 85, [(2R,3S,4R,5R)-5-[2-chloro-4-[[(1S)-2-methyl-1-phenyl-propyl]amino]pyrrolo-[2,3-d]pyrimidin-7-yl]-3,4-dihydroxy-tetrahydrofuran-2-yl]methoxymethyl-phosphonic acid], the IC50 (in experiment [1]; on Human CD73) was < 10 nM throughout.

`CC(C)OC(=O)OCOP(=O)(O)COC[C@H]1O[C@@H](n2ccc3c(NC4CCCC4)nc(Cl)nc32)[C@H](O)[C@@H]1O` [Compound 193, [(2R,3S,4R,5R)-5-[2-chloro-4-(cyclopentyl-amino)pyrrolo[2,3-d]-pyrimidin-7-yl]-3,4-dihydroxy-tetrahydro-furan-2-yl]methoxy-methyl-(isopropoxy-carbonyloxymethoxy)-phosphinic acid]: the IC50 (in experiment [1]; at Human CD73) was 10 to 100 nM each time.

In the case of `O=P(O)(O)COC[C@H]1O[C@@H](n2ccc3c(C4CCCC4)nc(Cl)nc32)[C@H](O)[C@@H]1O` [Compound 213, [(2R,3S,4R,5R)-5-(2-chloro-4-cyclopentyl-pyrrolo[2,3-d]-pyrimidin-7-yl)-3,4-dihydroxy-tetrahydro-furan-2-yl]methoxy-methylphosphonic acid], the IC50 (in experiment [1]; on Human CD73) was 10 to 100 nM in each case.

`C[C@@H](Nc1nc(Cl)nc2c1ccn2[C@@H]1O[C@H](COCP(=O)(O)O)[C@@H](O)[C@H]1O)c1ccc(C(F)(F)F)cc1` [Compound 114, [(2R,3S,4R,5R)-5-[2-chloro-4-[[(1R)-1-[4-(trifluoromethyl)-phenyl]ethyl]amino]-pyrrolo[2,3-d]-pyrimidin-7-yl]-3,4-dihydroxy-tetrahydro-furan-2-yl]methoxy-methylphosphonic acid]: the IC50 was < 10 nM in experiment [1] and 10 to 100 nM on Human CD73.

On to `CC(C)OP(=O)(O)CS(=O)(=O)C[C@H]1O[C@@H](n2ccc3c(NC4CCCC4)nc(Cl)nc32)[C@H](O)[C@@H]1O` [Compound 160, [(2S,3S,4R,5R)-5-[2-chloro-4-(cyclo-pentylamino)pyrrolo-[2,3-d]pyrimidin-7-yl]-3,4-dihydroxy-tetrahydrofuran-2-yl]methylsulfonyl-methyl-isopropoxy-phosphinic acid], for which the IC50 (in experiment [1]; at Human CD73) was 100 to 1000 nM in each case.

In the case of `C[C@H](Nc1nc(Cl)nc2c1ccn2[C@@H]1O[C@H](COCP(=O)(O)O)[C@@H](O)[C@H]1O)c1ccc(C#N)cc1` [Compound 117, [(2R,3S,4R,5R)-5-[2-chloro-4-[[(1S)-1-(4-cyanophenyl)ethyl]-amino]pyrrolo[2,3-d]-pyrimidin-7-yl]-3,4-dihydroxy-tetrahydro-furan-2-yl]methoxy-methylphosphonic acid], the IC50 in experiment [1] was < 10 nM; at Human CD73, 10 to 100 nM.

For the compound `O=P(O)(O)COC[C@H]1O[C@@H](c2csc3c(N4CC5CCCC5C4)nc(Cl)nc23)[C@H](O)[C@@H]1O` (stereo partly drawn) [Compound 295, [(2R,3S,4R,5S)-5-[4-(3,3a,4,5,6,6a-hexa-hydro-1H-cyclopenta-[c]pyrrol-2-yl)-2-chloro-thieno[3,2-d]-pyrimidin-7-yl]-3,4-dihydroxy-tetrahydro-furan-2-yl]methoxy-methylphosphonic acid], the half-inhibitory concentration (IC50) (in experiment [1]; at Human CD73) was < 10 nM throughout.

Take `C[C@H](Nc1nc(Cl)nc2c1ccn2[C@@H]1O[C@H](COCP(=O)(O)O)[C@@H](O)[C@H]1O)c1ccc(F)cn1` [Compound 139, [(2R,3S,4R,5R)-5-[2-chloro-4-[[(1S)-1-(5-fluoro-2-pyridyl)-ethyl]amino]pyrrolo-[2,3-d]pyrimidin-7-yl]-3,4-dihydroxy-tetrahydrofuran-2-yl]-methoxymethylphos-phonic acid]: the figures for the IC50 (in experiment [1]; on Human CD73) were 10 to 100 nM and < 10 nM, respectively.

Take `O=P(O)(O)COC[C@H]1O[C@@H](n2ccc3c(N[C@@H](CO)c4ccccc4)nc(Cl)nc32)[C@H](O)[C@@H]1O` [Compound 218, [(2R,3S,4R,5R)-5-[2-chloro-4-[[(1R)-2-hydroxy-1-phenyl-ethyl]amino]pyrrolo-[2,3-d]pyrimidin-7-yl]-3,4-dihydroxy-tetra-hydrofuran-2-yl]-methoxymethylphos-phonic acid]: the IC50 (in experiment [1]; on Human CD73) was 10 to 100 nM in each case.

In the case of `C[C@H](Nc1nc(Cl)nc2c1ccn2[C@@H]1O[C@H](COCP(=O)(O)O)[C@@H](O)[C@H]1O)c1ccccc1` [Compound 60, [(2R,3S,4R,5R)-5-[2-chloro-4-[[(1S)-1-phenylethyl]amino]-pyrrolo[2,3-d]-pyrimidin-7-yl]-3,4-dihydroxy-tetrahydro-furan-2-yl]methoxy-methylphosphonic acid], the figures for the IC50 (in experiment [1]; at Human CD73) were 10 to 100 nM and < 10 nM, respectively.

(Values after patent US11591355B2 (Peloton Therapeutics, Inc., priority 2017, dated 2023).)
